Laboratory results reported in PubChem BioAssay (NCI).
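Assay format: 96-well plates, 48-hour exposure. GI50 is the concentration that inhibits growth by half. At the TGI there is no net growth.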

Tests used:
Test in all cases: NCI anticancer screen, dose series, 48 h
[1] = system: HL-60(TB) leukemia
[2] = system: SF-295 CNS
[3] = system: HCT-15 colon
[4] = system: OVCAR-5 ovarian
[5] = system: OVCAR-4 ovarian
[6] = system: UACC-62 melanoma
[7] = system: SK-MEL-5 melanoma
[8] = system: OVCAR-8 ovarian
[9] = system: SNB-19 CNS
[10] = system: SW-620 colon

Row | Compound | TGI [1] | TGI [2] | TGI [3] | TGI [4] | TGI [5] | TGI [6] | TGI [7] | TGI [8] | TGI [9] | TGI [10] | GI50 [1] | GI50 [2] | GI50 [3] | GI50 [4] | GI50 [5] | GI50 [6] | GI50 [7] | GI50 [8] | GI50 [9] | GI50 [10]
1 | O=C1c2cccc3cccc(c23)C(=O)N1O | > 100 µM | > 100 µM | > 100 µM | > 100 µM | > 100 µM | > 100 µM | > 100 µM | > 100 µM | > 100 µM | > 100 µM | – | – | – | – | – | – | – | – | – | –
2 | COc1ccc(C2=C(N3CCc4ccccc43)C(=O)NC2=O)cc1 | > 25 µM | > 25 µM | > 25 µM | > 25 µM | > 25 µM | > 25 µM | > 25 µM | > 25 µM | > 25 µM | > 25 µM | > 21.1 µM | > 25 µM | > 25 µM | > 25 µM | > 25 µM | > 19.9 µM | > 21.6 µM | > 25 µM | > 25 µM | > 25 µM
3 | N#C/C(=C1\SC(N=Nc2ccc(Cl)cc2)C(=O)N1c1ccccc1)c1nc2ccccc2[nH]1 (stereo not given) | > 100 µM | 58.7 µM | > 100 µM | > 100 µM | 55.8 µM | > 100 µM | > 100 µM | > 100 µM | 89.6 µM | > 100 µM | – | – | – | – | – | – | – | – | – | –
4 | COc1ccc(Nc2nccc(N3CCN(c4c5ccc(Cl)cc5nc5ccc(OC)cc45)CC3)n2)cc1 | > 100 µM | 42.3 µM | > 100 µM | > 100 µM | > 100 µM | > 100 µM | > 100 µM | > 100 µM | > 100 µM | > 100 µM | 7.22 µM | 10.7 µM | 4.48 µM | > 100 µM | 18.2 µM | 16.8 µM | 16.1 µM | 6.53 µM | 18.5 µM | 7.19 µM
5 | COc1ccc(C(=O)c2nc3ccccc3n2CC(=O)c2ccc(Cl)cc2)cc1 | 5.06 µM | > 100 µM | > 100 µM | > 100 µM | > 100 µM | > 100 µM | 12.9 µM | > 100 µM | > 100 µM | > 100 µM | 0.958 µM | 2.5 µM | 2 µM | > 82.3 µM | 5.02 µM | 4.93 µM | 2.55 µM | 6.3 µM | 4.32 µM | 1.29 µM
6 | C/C1=C\CC[C@@](C)(O)[C@@H]2C[C@H](CC/C(C)=C/CC1)C1(CC1)C(=O)O2 | 33.4 µM | 85.6 µM | > 100 µM | > 100 µM | > 100 µM | 37.3 µM | 35 µM | > 100 µM | > 100 µM | 73.1 µM | 15.4 µM | 26.7 µM | 30.2 µM | 54.9 µM | 26.3 µM | 15.2 µM | 17.4 µM | 61.5 µM | 61.9 µM | 27.1 µM
7 | Cc1cc(C)n(C2=NS(=O)(=O)c3ccccc3N2C)n1 | > 100 µM | > 100 µM | > 100 µM | > 100 µM | > 100 µM | > 100 µM | > 100 µM | > 100 µM | > 100 µM | > 100 µM | – | – | – | – | – | – | – | – | – | –
8 | COc1ccccc1NC(=O)/C(=C/c1ccccc1)C(C)=O | 57.3 µM | 71 µM | > 100 µM | > 100 µM | > 100 µM | > 100 µM | 62 µM | > 100 µM | > 100 µM | > 100 µM | – | – | – | – | – | – | – | – | – | –
9 | C=C1C(=O)C23C(O)C1CC[C@H]2C12CCCC(C)(COC(C)=O)[C@H]1[C@H](O)[C@]3(O)OC2 (stereo not given in full) | 1.04 µM | 2.41 µM | 2.37 µM | 5.18 µM | 5.49 µM | 3.16 µM | 3.26 µM | 3.52 µM | 7.03 µM | 1.92 µM | – | – | – | – | – | – | – | – | – | –
10 | Cc1cc2c(cc1Cl)S/C(=C/C(=O)O)C(Nc1cccc3nsnc13)=NS2(=O)=O | > 32.5 µM | > 71.5 µM | > 68.8 µM | > 67.4 µM | 42.7 µM | > 66.2 µM | > 58.5 µM | > 74.8 µM | > 66.8 µM | > 67.6 µM | 7.63 µM | > 56.9 µM | > 54.7 µM | 34.6 µM | 18.7 µM | 43 µM | 33.4 µM | > 53.2 µM | > 52 µM | 44.8 µM
11 | Cc1ccc(NC(=O)/C(Cc2cc(=O)oc3cc(O)ccc23)=N\NC(=O)C[N+](C)(C)C)cc1C | > 100 µM | > 100 µM | > 100 µM | > 100 µM | > 100 µM | > 100 µM | > 100 µM | > 100 µM | > 100 µM | > 100 µM | – | – | – | – | – | – | – | – | – | –
12 | CC1(C)CC(=O)C(CC2C(=O)c3ccccc3C2=O)C(=O)C1 | > 100 µM | > 100 µM | > 100 µM | > 100 µM | > 100 µM | > 100 µM | > 100 µM | > 100 µM | > 100 µM | > 100 µM | – | – | – | – | – | – | – | – | – | –
13 | O=C(NCCN1CCNCC1)c1ccc(Nc2nc3ccccc3c3occc23)cc1 | 33.5 µM | 30.5 µM | 37.9 µM | 29.5 µM | 33.3 µM | 32 µM | 13.7 µM | 75.7 µM | > 100 µM | 17.4 µM | 17.6 µM | 10.9 µM | 20 µM | 15 µM | 14.3 µM | 17.6 µM | 3.39 µM | 23.2 µM | 15.5 µM | 3.6 µM
14 | Cc1ccc(NC(=O)/C(Cc2nc3ccc([N+](=O)[O-])cc3[nH]c2=O)=N\NC(=O)C[n+]2ccccc2)c(C)c1 | 81.8 µM | > 100 µM | > 100 µM | > 100 µM | 46.6 µM | > 100 µM | 55.4 µM | 74 µM | > 100 µM | > 100 µM | – | – | – | – | – | – | – | – | – | –
15 | C[C@]12C/C(=C/O)C(=O)C(O)=C1CC[C@@H]1C2CC[C@@]2(C)C1CC[C@@H]2O (stereo not given in full) | 41.8 µM | 72.5 µM | 61.5 µM | 46.1 µM | 62.7 µM | 46.7 µM | 42.9 µM | 75.6 µM | 36.1 µM | > 100 µM | – | – | – | – | – | – | – | – | – | –
16 | Cc1cccc(N=Nc2ccc(N=Nc3c(O)ccc4ccccc34)cc2C)c1 | > 100 µM | > 100 µM | > 100 µM | > 100 µM | > 100 µM | > 100 µM | > 100 µM | 60.3 µM | > 100 µM | > 100 µM | – | – | – | – | – | – | – | – | – | –
